Assay results taken from patent publication US11166460B2, “α-amino acrylate microbicide, and preparation method therefor and uses thereof” (priority 2017, dated 2021).
Read-outs that look alike come from different tables or passages of the source.

Tests used:
[1] = tested on: tobacco mosaic virus (TMV); assay: Anti-TMV curative activity (treatment mode), live friction inoculation on tobacco seedlings; type: in vivo; settings: Tobacco mosaic virus, read-out: Anti-TMV activity, Curative effect (inhibition), 100 μg/mL, tobacco seedlings, checked on seventh day
[2] = tested on: tobacco mosaic virus (TMV); assay: Anti-TMV inactivation activity (inactivation mode), compound mixed with TMV before inoculation of tobacco leaves; type: in vivo; settings: Tobacco mosaic virus, read-out: Anti-TMV activity, Inactivation effect (inhibition)
[3] = tested on: tobacco mosaic virus (TMV); assay: Anti-TMV protective activity (protection mode), live friction inoculation on tobacco seedlings; type: in vivo; settings: Tobacco mosaic virus, read-out: Anti-TMV activity, Protection effect (inhibition)
[4] = tested on: tobacco mosaic virus (TMV); assay: Anti-TMV inducing activity (induction mode), tobacco seedlings; type: in vivo; settings: Tobacco mosaic virus, read-out: Anti-TMV activity, Induction effect (inhibition), 100 μg/mL, tobacco seedlings
[5] = tested on: Alternaria solani; assay: Fungicidal activity, fungi growth rate method, AS; type: cell-based; settings: Alternaria solani; 50 μg/mL; read-out: Fungicidal activity, inhibition, AS
[6] = tested on: Botrytis cinerea; assay: Fungicidal activity, fungi growth rate method, BC; type: cell-based; settings: Botrytis cinerea; 50 μg/mL; read-out: Fungicidal activity, inhibition, BC
[7] = tested on: Cercospora arachidicola; assay: Fungicidal activity, fungi growth rate method, CA; type: cell-based; settings: Mycosphaerella arachidis; 50 μg/mL; read-out: Fungicidal activity, inhibition, CA
[8] = tested on: wheat Gibberella zeae; assay: microbe, parasite or virus in culture; type: cell-based; settings: Fusarium graminearum
[9] = tested on: Phytophthora infestans (Mont) de Bary; assay: microbe, parasite or virus in culture; type: cell-based; settings: Phytophthora infestans, read-out: Fungicidal activity, inhibition, PI
[10] = tested on: Physalospora piricola; assay: Fungicidal activity, fungi growth rate method, PP; type: cell-based; settings: 50 μg/mL; read-out: Fungicidal activity, inhibition, PP
[11] = tested on: Pellicularia sasakii; assay: Fungicidal activity, fungi growth rate method, PS; type: cell-based; settings: 50 μg/mL; read-out: Fungicidal activity, inhibition, PS
[12] = tested on: Rhizoctonia cerealis; assay: Fungicidal activity, fungi growth rate method, RC; type: cell-based; settings: Ceratobasidium cereale; 50 μg/mL; read-out: Fungicidal activity, inhibition, RC
[13] = tested on: Sclerotinia sclerotiorum; assay: microbe, parasite or virus in culture; type: cell-based; settings: Sclerotinia sclerotiorum, 50 μg/mL
[14] = read-out: Fungicidal activity, inhibition, GZ
[15] = read-out: Fungicidal activity (inhibition) against SS: Sclerotinia sclerotiorum
[16] = read-out: Fungicidal activity, inhibition, SS

SMILES	inhibition at 100 µg/mL [1] [%]	inhibition at 100 µg/mL [2] [%]	inhibition at 100 µg/mL [3] [%]	inhibition at 100 µg/mL [4] [%]	inhibition at 50 µg/mL [5] [%]	inhibition at 50 µg/mL [6] [%]	inhibition at 50 µg/mL [7] [%]	inhibition at 50 µg/mL [8, 14] [%]	inhibition at 50 µg/mL [9] [%]	inhibition at 50 µg/mL [10] [%]	inhibition at 50 µg/mL [11] [%]	inhibition at 50 µg/mL [12] [%]	inhibition at 50 µg/mL [13, 15] [%]	inhibition at 50 µg/mL [13, 16] [%]	melting point [°C]	inhibition at 50 µg/mL ([8]; read-out: Fungicidal activity (inhibition) against GZ: wheat Gibberella zeae) [%]
O=C(NCc1ccc(Br)cc1)/C(=C/c1ccccc1)NC(=O)C1CC1 [Compound 59, N-[(1Z)-2-phenyl-1-[[(4-bromophenylmethyl)amino]carbonyl]ethenyl]cyclopropanecarboxamide]	80	39	41	26	16	18	22	16	10	8	19	24	60 to 80	75	187 to 189	
O=C(NCc1ccc(Br)cc1)/C(=C/c1ccccc1)NC(=O)C1CCCCC1 [Compound 60, N-[(1Z)-2-phenyl-1-[[(4-bromophenylmethyl)amino]carbonyl]ethenyl]cyclohexanecarboxamide]	16	53	28	18	21	18	18	57	16	12	9	23		38	215 to 216	
O=C(OCc1ccc(Br)cc1)/C(=C/c1ccccc1)NC(=O)c1ccccc1 [Compound 61, N-[(1Z)-2-phenyl-1-[(4-bromophenymethoxyl)carbonyl]ethenyl]benzamide]	0	13	16	0	25	18	12	29	11	6	9	13		44	168 to 170	
O=C(N/C(=C\c1ccco1)C(=O)N1CCC(O)(c2ccc(Br)cc2)CC1)C1CCCCC1 [Compound 63, (Z)-N-[1-[[4-(4-bromophenyl)-4-hydroxy-1-piperidinyl]carbonyl]-2-(2-furanyl)ethenyl]cyclohexanecarboxamide]	36	50	53	9	29	35	24	57	21	18	14	21		44	121 to 123	
CC(C)(C)OC(=O)N1CCC(c2nc(C(=O)NCC(=O)O)cs2)CC1 [Compound 65, N-[[4-[2-[4-(1-Boc-piperidine)]thiazol]]formyl]ethanoic acid]	0	40	39	38	9	10	10	16	18	3	9	10		67	183 to 185	
O=C(O)/C(=C/c1ccccc1)NC(=O)C1CC1 [Compound 67, (Z)-2-cyclopropanoylamino-3-phenylpropenoic acid]	52	57	78	34	20	19	15	23	13	3	6	10		67	193 to 195	
O=C(O)/C(=C/c1ccccc1)NC(=O)c1ccc(C(F)(F)F)cc1 [Compound 68, (Z)-2-[4-(trifluoromethyl)benzoylamino]-3-phenylpropenoic acid]	0	3	37	34	13	20	12	17	18	7	13	9	60 to 80	73	184 to 186	
O=C(O)/C(=C/c1ccccc1)NC(=O)c1cccs1 [Compound 69, (Z)-2-(2-thiophanoylamino)-3-phenylpropenoic acid]	0	1	27	45	17	7	16	19	17	7	6	10	60 to 80	78	221 to 223	
Cc1snnc1/C=C(\NC(=O)c1ccccc1)C(=O)O [Compound 70, (Z)-2-benzoylamino-3-[4-(5-methyl-1,2,3-thiadiazol)]propenoic acid]	37	3	17	37	14	12	24	21	13	0	14	18		44	190 to 192	
Cc1nnsc1/C=C(\NC(=O)c1ccccc1)C(=O)O [Compound 71, (Z)-2-benzoylamino-3-[5-(4-methyl-1,2,3-thiadiazol)]propenoic acid]	0	67	53	27	14	12	24	86	21	6	9	18		47	215 to 217	86
